Results as given in patent US11286268B1, “EIF4E-inhibiting compounds and methods” (EFFECTOR THERAPEUTICS, INC., priority 2019, dated 2022).
Read-outs that look alike come from different tables or passages of the source.

Target: recombinant eIF4E (Homo sapiens (Human), UniProt P06730)
Assay: Fluorescence polarization competition assay for eIF4E binding potency
Outline: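 FP readout; IC50 fit from 8-point, 3-fold series. 75 nM eIF4E + 20 nM ATTO-550-labelled m7GDP probe, Tris pH 7.5/NaCl/DTT/Tween buffer, 1% DMSO final. 30 min RT equilibration, light-protected.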

[1] = fluorescence polarization competition, 75 nM recombinant eIF4E, 20 nM EDA-m7GDP-ATTO-550, IC50 class, read-out: elF4E FP
[2] = inhibition of eIF4E/EDA-m7GDP-ATTO-550 binding by 50%, Table 4B calculated values, read-out: IC50

Sequence of recombinant eIF4E (P06730 whole entry): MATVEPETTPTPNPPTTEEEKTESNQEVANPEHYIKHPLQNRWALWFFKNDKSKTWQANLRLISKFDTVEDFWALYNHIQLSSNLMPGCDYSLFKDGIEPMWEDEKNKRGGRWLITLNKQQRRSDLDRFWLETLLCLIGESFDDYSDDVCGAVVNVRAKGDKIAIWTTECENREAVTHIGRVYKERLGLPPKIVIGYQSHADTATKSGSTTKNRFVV

SMILES | IC50 [1] | IC50 [2]
Cc1nc2cc(C(F)(F)F)c(CN(C)C)c(F)c2c(=O)n1CCOc1ccc(Cl)cc1-c1ccnc2c(C(=O)O)csc12 [compound 621] | 50 to 1000 nM | 60 nM
Cc1nc2cc(C(F)F)c(CN(C)C)c(C#N)c2c(=O)n1CC#Cc1ccc(Cl)cc1-c1ccnc2c(C(=O)O)csc12 [compound 622] | < 50 nM | 43.8 nM
Cc1nc2cc(CN(C)C)c(C(F)(F)F)c(C#N)c2c(=O)n1CC#Cc1ccc(Cl)cc1-c1ccnc2c(C(=O)O)csc12 [compound 623] | < 50 nM | 4.77 nM
Cc1nc2cncc(C#N)c2c(=O)n1CC#Cc1ccc(Cl)cc1-c1ccnc2c(C(=O)O)csc12 [compound 624] | < 50 nM | 4.02 nM
Cc1nc2cnc(C#N)cc2c(=O)n1CC#Cc1ccc(Cl)cc1-c1ccnc2c(C(=O)O)csc12 [compound 625] | 50 to 1000 nM | 78 nM
Cc1nc2cc(CN(C)C)c(OC(F)F)c(C#N)c2c(=O)n1CC#Cc1ccc(Cl)cc1-c1ccnc2c(C(=O)O)csc12 [compound 626] | < 50 nM | 10.4 nM
Cc1cc(-c2cc(Cl)ccc2OCCn2c(C)nc3cc(C(F)(F)F)c(-c4ccncc4)c(C#N)c3c2=O)c2scc(C(=O)O)c2n1 [compound 629] | < 50 nM | 6.39 nM
Cc1cc(-c2cc(Cl)ccc2OCCn2c(C)nc3cc(C(F)(F)F)c(-c4cccnc4)c(C#N)c3c2=O)c2scc(C(=O)O)c2n1 [compound 630] | 50 to 1000 nM | 50.2 nM
Cc1cc(-c2cc(Cl)ccc2OCCn2c(C)nc3cc(C(F)(F)F)c(-n4cccn4)c(C#N)c3c2=O)c2scc(C(=O)O)c2n1 [compound 633] | < 50 nM | 12.9 nM
Cc1cc(-c2cc(Cl)ccc2OCCn2c(C)nc3cc(CN(C)C)c(C(F)(F)F)c(C#N)c3c2=O)c2scc(C(=O)O)c2n1 [compound 635] | < 50 nM | 10.6 nM
Cc1sc2c(-c3cc(Cl)ccc3OCCn3cnc4cc(C(F)(F)F)c(CN(C)C)c(C#N)c4c3=O)ccnc2c1C(=O)O [compound 641] | < 50 nM | 33.3 nM
Cc1cc(-c2cc(Cl)ccc2OCCn2c(C)nc3cc(C(F)(F)F)c(CN4C[C@@H](C)O[C@@H](C)C4)c(C#N)c3c2=O)c2scc(C(=O)O)c2n1 [compound 642] | < 50 nM | 3.63 nM
Cc1sc2c(-c3cc(Cl)ccc3C#CCn3c(C)nc4cc(C(F)(F)F)c(CN5CCN(C)CC5)c(C#N)c4c3=O)ccnc2c1C(=O)O [compound 643] | < 50 nM | 0.832 nM
Cc1nc2cc(C(F)(F)F)c(CN3CCN(C)CC3)c(C#N)c2c(=O)n1CCOc1ccc(Cl)cc1-c1cc(CF)nc2c(C(=O)O)csc12 [compound 645] | < 50 nM | 31.3 nM
Cc1cc(-c2cc(Cl)ccc2OCCn2c(C)nc3cc(C(F)F)c(CN4CCN(C)CC4)c(C#N)c3c2=O)c2scc(C(=O)O)c2n1 [compound 646] | < 50 nM | 41.4 nM
Cc1cc(-c2cc(Cl)ccc2OCCn2c(C)nc3cc(C(F)(F)F)c(CN4CCNCC4)c(C#N)c3c2=O)c2scc(C(=O)O)c2n1 [compound 649] | < 50 nM | 15 nM
Cc1cc(-c2cc(Cl)ccc2OCCn2c(C)nc3cc(C(F)(F)F)c(C4CN(C)C4)c(C#N)c3c2=O)c2scc(C(=O)O)c2n1 [compound 652] | < 50 nM | 6.68 nM
Cc1cc(-c2cc(Cl)ccc2OCCn2c(C)nc3cc(Cl)c(-c4cccnc4)c(C#N)c3c2=O)c2scc(C(=O)O)c2n1 [compound 653] | < 50 nM | 22.7 nM
Cc1cc(-c2cc(Cl)ccc2OCCn2c(C)nc3cc(-c4cccnc4)cc(C#N)c3c2=O)c2scc(C(=O)O)c2n1 [compound 654] | < 50 nM | 3.12 nM

Other lines, results leading:

IC50 [1] | IC50 [2] | SMILES
< 50 nM | 2.98 nM | Cc1cc(-c2cc(Cl)ccc2OCCn2c(C)nc3cc(CN(C)C(C)(C)C)c(OC(F)F)c(C#N)c3c2=O)c2scc(C(=O)O)c2n1 [compound 618]
< 50 nM | 6.34 nM | Cc1cc(-c2cc(Cl)ccc2OCCn2c(C)nc3cc(CNC(C)(C)C)c(OC(F)F)c(C#N)c3c2=O)c2scc(C(=O)O)c2n1 [compound 619]
< 50 nM | 36.9 nM | Cc1c(CN(C)C)c(C(F)(F)F)cc2nc(C)n(CCOc3ccc(Cl)cc3-c3ccnc4c(C(=O)O)csc34)c(=O)c12 [compound 620]
< 50 nM | 6.72 nM | Cc1cc(-c2cc(Cl)ccc2OCCn2c(C)nc3cc(C(F)F)c(C)c(C#N)c3c2=O)c2scc(C(=O)O)c2n1 [compound 627]
< 50 nM | 28.5 nM | Cc1cc(-c2cc(Cl)ccc2OCCn2c(C)nc3cc(C)c(C)c(C#N)c3c2=O)c2scc(C(=O)O)c2n1 [compound 628]
< 50 nM | 3.41 nM | Cc1cc(-c2cc(Cl)ccc2OCCn2c(C)nc3cc(C(F)(F)F)c(-c4ccccn4)c(C#N)c3c2=O)c2scc(C(=O)O)c2n1 [compound 631]
< 50 nM | 12 nM | Cc1cc(-c2cc(Cl)ccc2OCCn2c(C)nc3cc(C(F)(F)F)c(-n4ccnc4)c(C#N)c3c2=O)c2scc(C(=O)O)c2n1 [compound 632]
< 50 nM | 33.2 nM | Cc1nc2cc(C(F)(F)F)cc(C#N)c2c(=O)n1CCOc1ccc(Cl)cc1-c1cc(CN(C)C)nc2c(C(=O)O)csc12 [compound 636]
< 50 nM | 16.6 nM | CCc1cc(-c2cc(Cl)ccc2OCCn2c(C)nc3cc(C(F)(F)F)c(CN4CCN(C)CC4)c(C#N)c3c2=O)c2scc(C(=O)O)c2n1 [compound 637]
< 50 nM | 4.46 nM | COc1cc(-c2cc(Cl)ccc2OCCn2c(C)nc3cc(C(F)(F)F)c(CN4CCN(C)CC4)c(C#N)c3c2=O)c2scc(C(=O)O)c2n1 [compound 638]
< 50 nM |  | CCc1cc(-c2cc(Cl)ccc2OCCn2c(C)nc3cc(CN(C)C)c(OC(F)F)c(C#N)c3c2=O)c2scc(C(=O)O)c2n1 [compound 639]
< 50 nM | 24 nM | Cc1nc2cc(C(F)(F)F)c(N3CCN(CC(F)(F)F)CC3)c(C#N)c2c(=O)n1CCOc1ccc(Cl)cc1-c1ccnc2c(C(=O)O)csc12 [compound 640]
< 50 nM | 4.97 nM | Cc1nc2cc(C(F)(F)F)c(CN3CCN(C)CC3)c(C#N)c2c(=O)n1CCOc1ccc(Cl)cc1-c1cc(CCF)nc2c(C(=O)O)csc12 [compound 644]
< 50 nM | 19.8 nM | Cc1cc(-c2cc(Cl)ccc2OCCn2c(C)nc3ccc(CN4CCN(C)CC4)c(C#N)c3c2=O)c2scc(C(=O)O)c2n1 [compound 647]
< 50 nM | 28.3 nM | Cc1cc(-c2cc(Cl)ccc2OCCn2c(C)nc3cc(CN(C)C)c(C)c(C#N)c3c2=O)c2scc(C(=O)O)c2n1 [compound 650]
< 50 nM | 21.8 nM | Cc1nc2cc(CN(C)Cc3cn(C)nn3)c(OC(F)F)c(C#N)c2c(=O)n1CCOc1ccc(Cl)cc1-c1ccnc2c(C(=O)O)csc12 [compound 651]
< 50 nM | 13.5 nM | Cc1nc2cc(C(F)(F)F)c(N3CCN(CCF)CC3)c(C#N)c2c(=O)n1CCOc1ccc(Cl)cc1-c1ccnc2c(C(=O)O)csc12 [compound 655]
< 50 nM | 33.4 nM | Cc1nc(N2CCN(C)C3CC32)c(C#N)c2c(=O)n(CC#Cc3ccc(Cl)cc3-c3ccnc4c(C(=O)O)csc34)c(C)nc12 (stereo not drawn) [compound 656]
< 50 nM | 45.7 nM | N#Cc1cccc2c1c(=O)n(CCOc1ccc(Cl)cc1-c1ccnc3c(C(=O)O)csc13)c1ccccc21 [compound 657]
